# According to ChEMBL document CHEMBL5321216, “Discovery of bipyridine amide derivatives targeting pRXRα-PLK1 interaction for anticancer therapy” (Eur J Med Chem, 2023):
# Calls of active or inactive are those of the source. The rule behind the calls is not given here.
# What was measured:
# [1] = Cytotoxicity against HK-2 cells assessed as inhibition of cell proliferation incubated for 72 hrs by MTT assay; assay type: toxicity, cell-based; conditions: human
# A549 [2] = test: Induction of cell cycle arrest in RXRalpha knockout human A549 cells assessed as accumulation of cells at S phase at 125 nM incubated for 12 hrs by DAPI staining based flow cytometry analysis (reference value: 32.74%); assay type: functional
# MDA-MB-231 [3] = test: Induction of apoptosis in human MDA-MB-231 cells assessed as reduction in Bcl-2 protein expression measured after 24 hrs by Western blot analysis; assay type: functional, cell-based; conditions: dose 7.8-500 nM
# A549 [4] = test: Induction of apoptosis in human A549 cells assessed as early apoptotic cells at 250 nM incubated for 24 hrs by annexin V-FITC/PI staining based flow cytometry analysis (reference value: 0.78%); assay type: functional
# A549 [5] = test: Induction of apoptosis in human A549 cells assessed as late apoptotic cells at 125 nM incubated for 24 hrs by annexin V-FITC/PI staining based flow cytometry analysis (reference value: 5.28%); assay type: functional
# A549 [6] = test: Induction of apoptosis in human A549 cells assessed as late apoptotic cells at 62.5 nM incubated for 24 hrs by annexin V-FITC/PI staining based flow cytometry analysis (reference value: 5.28%); assay type: functional
# MDA-MB-231 [7] = test: Induction of cell cycle arrest in human MDA-MB-231 cells assessed as accumulation of cells at G1 phase at 125 nM incubated for 12 hrs by flow cytometry analysis (reference value: 43.2%); assay type: functional
# A549 [8] = test: Induction of cell cycle arrest in human A549 cells assessed as accumulation of cells at S phase at 31.25 nM incubated for 12 hrs by flow cytometry analysis (reference value: 31.81%); assay type: functional
# MDA-MB-231 [9] = test: Upregulation of phosphorylated RXRalpha protein level in human MDA-MB-231 cells at 125 to 500 nM measured after 24 hrs by Western blot analysis; assay type: functional, cell-based; conditions: dose 125-500 nM
# MDA-MB-231 [10] = test: Effect on Nur77 protein expression in human MDA-MB-231 cells at 7.8 to 500 nM measured after 24 hrs by Western blot analysis; assay type: functional, cell-based; conditions: dose 7.8-500 nM
smiles,measurement,setting,value
O=C(/C=C/c1ccccc1)Nc1cc(-c2ccnc(N3CCC(CO)CC3)c2)ccn1,IC50 at 72 h,[1],0.372 µM
same,Activity,A549 [2],36.18%
same,Activity,MDA-MB-231 [3],Dose-Dependent Effect
same,Activity,A549 [4],31.3%
same,Activity,A549 [5],22.8%
same,Activity,A549 [6],18.2%
same,Activity,MDA-MB-231 [7],0.07%
same,Activity,A549 [8],32.4%
same,Activity,MDA-MB-231 [9],Active
same,Activity,MDA-MB-231 [10],inactive
